Target: T1, topoisomerase I (Homo sapiens, UniProt P11387)
T1 construct: gene TOP1
T1 sequence (P11387 2-765): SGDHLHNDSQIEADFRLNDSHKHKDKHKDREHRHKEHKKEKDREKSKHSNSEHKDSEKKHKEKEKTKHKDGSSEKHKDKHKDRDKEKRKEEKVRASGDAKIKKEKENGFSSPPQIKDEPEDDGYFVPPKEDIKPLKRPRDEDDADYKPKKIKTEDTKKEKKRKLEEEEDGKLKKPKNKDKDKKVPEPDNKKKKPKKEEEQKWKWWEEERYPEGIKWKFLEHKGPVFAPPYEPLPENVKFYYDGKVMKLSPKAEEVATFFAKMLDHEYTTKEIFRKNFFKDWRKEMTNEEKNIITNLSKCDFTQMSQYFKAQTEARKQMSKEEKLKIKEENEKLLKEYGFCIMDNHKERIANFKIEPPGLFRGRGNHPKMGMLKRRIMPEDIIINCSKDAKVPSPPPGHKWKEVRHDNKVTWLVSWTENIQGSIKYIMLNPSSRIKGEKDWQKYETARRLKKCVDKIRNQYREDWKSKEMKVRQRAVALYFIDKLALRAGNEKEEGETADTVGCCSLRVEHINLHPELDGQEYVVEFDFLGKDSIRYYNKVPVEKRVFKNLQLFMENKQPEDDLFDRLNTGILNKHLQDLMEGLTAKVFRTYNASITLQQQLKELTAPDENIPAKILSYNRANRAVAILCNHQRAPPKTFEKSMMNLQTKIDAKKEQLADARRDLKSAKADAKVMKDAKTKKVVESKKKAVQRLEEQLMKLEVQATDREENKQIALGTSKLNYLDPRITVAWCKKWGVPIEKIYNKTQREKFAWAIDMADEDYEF
Experiment: supercoiled plasmid DNA relaxation gel assay (TopoGEN topo I kit)
Type: biochemical

Row | SMILES | IC50
1 | COc1ccc(C2C3=C(Nc4[nH]c(=S)[nH]c(=O)c42)c2ccccc2C3=O)cc1 (centres unmarked) [7H] | 30.9 ± 1.49 µM
2 | CN(C)c1ccc(C2C3=C(Nc4[nH]c(=S)[nH]c(=O)c42)c2ccccc2C3=O)cc1 (centres unmarked) [9H] | 38.8 ± 2.27 µM

From article PMC9570267, “A Computational QSAR, Molecular Docking and In Vitro Cytotoxicity Study of Novel Thiouracil-Based Drugs with Anticancer Activity against Human-DNA Topoisomerase II” (International Journal of Molecular Sciences, 2022)
